Drawing on ChEMBL document CHEMBL1143336, “Structure-activity relationship study on polyglutamine binding peptide QBP1” (Bioorg Med Chem, 2009), this text covers IC50 and inhibition for 31 molecules.

The nature of assay [1]: Inhibition of thioredoxin-conjugated PolyQ-62 protein aggregation expressed in Escherichia coli DH5alpha.
Assay [2] can be described thus: Inhibition of thioredoxin-conjugated PolyQ-62 protein aggregation expressed in Escherichia coli DH5alpha at 20 uM relative to control.

A value given as a limit tells only on which side of the number the result lay.

`CC[C@H](C)[C@H](NC(=O)CNC(=O)[C@@H]1CCCN1C(=O)[C@H](Cc1c[nH]c2ccccc12)NC(=O)[C@H](Cc1c[nH]c2ccccc12)NC(=O)[C@H](CCCCN)NC(=O)[C@H](Cc1c[nH]c2ccccc12)NC(=O)[C@@H](CC(N)=O)NC(=O)[C@H](CO)NC(C)=O)C(=O)N[C@@H](Cc1ccccc1)C(=O)N[C@@H](CC(=O)O)C(N)=O` displayed an IC50 in assay [1] of 4.5 µM. For the same molecule, the inhibition in assay [2] was found to be 80.7%.

As to `CC[C@H](C)[C@H](NC(=O)CNC(=O)[C@@H]1CCCN1C(=O)[C@H](Cc1c[nH]c2ccccc12)NC(=O)[C@H](Cc1c[nH]c2ccccc12)NC(=O)[C@H](CCCCN)NC(=O)[C@H](Cc1c[nH]c2ccccc12)NC(=O)[C@H](CC(N)=O)NC(=O)[C@H](CO)NC(C)=O)C(=O)N[C@@H](Cc1ccccc1)C(=O)N[C@H](CC(=O)O)C(N)=O`, the IC50 in assay [1] turned out to be 5 µM. In addition, the inhibition in assay [2] worked out at 77.2%.

Take `CC[C@H](C)[C@H](NC(=O)CNC(=O)[C@@H]1CCCN1C(=O)[C@H](Cc1c[nH]c2ccccc12)NC(=O)[C@H](Cc1c[nH]c2ccccc12)NC(=O)[C@H](CCCCN)NC(=O)[C@H](Cc1c[nH]c2ccccc12)NC(=O)[C@H](CC(N)=O)NC(=O)[C@H](CO)NC(C)=O)C(=O)N[C@H](Cc1ccccc1)C(=O)N[C@@H](CC(=O)O)C(N)=O`: the IC50 in assay [1] is over 20 µM. The inhibition in assay [2] worked out at 65.3%.

In assay [1], `CC[C@H](C)[C@H](NC(=O)CNC(=O)[C@@H]1CCCN1C(=O)[C@H](Cc1c[nH]c2ccccc12)NC(=O)[C@H](Cc1c[nH]c2ccccc12)NC(=O)[C@H](CCCCN)NC(=O)[C@H](Cc1c[nH]c2ccccc12)NC(=O)[C@H](CC(N)=O)NC(=O)[C@H](CO)NC(C)=O)C(=O)N[C@@H](Cc1ccccc1)C(=O)N[C@@H](CC(=O)O)C(N)=O` returned an IC50 of 5 µM. Besides, the inhibition in assay [2] was 76.7%.

Molecule `CC[C@H](C)[C@H](NC(=O)[C@H](C)NC(=O)[C@@H]1CCCN1C(=O)[C@H](Cc1c[nH]c2ccccc12)NC(=O)[C@H](Cc1c[nH]c2ccccc12)NC(=O)[C@H](CCCCN)NC(=O)[C@H](Cc1c[nH]c2ccccc12)NC(=O)[C@H](CC(N)=O)NC(=O)[C@H](CO)NC(C)=O)C(=O)N[C@@H](Cc1ccccc1)C(=O)N[C@@H](CC(=O)O)C(N)=O` gave a half-inhibitory concentration (IC50) in assay [1] of 11.5 µM. The inhibition in assay [2] came to 64.9%.

In assay [1], `CC[C@H](C)[C@H](NC(=O)CNC(=O)[C@@H]1CCCN1C(=O)[C@H](Cc1c[nH]c2ccccc12)NC(=O)[C@H](Cc1c[nH]c2ccccc12)NC(=O)[C@H](CCCCN)NC(=O)[C@H](Cc1c[nH]c2ccccc12)NC(=O)[C@H](CC(N)=O)NC(=O)[C@@H](CO)NC(C)=O)C(=O)N[C@@H](Cc1ccccc1)C(=O)N[C@@H](CC(=O)O)C(N)=O` registered an IC50 of 4.4 µM. Moreover, the inhibition in assay [2] was 83.2%.

With `CC[C@H](C)[C@@H](NC(=O)CNC(=O)[C@@H]1CCCN1C(=O)[C@H](Cc1c[nH]c2ccccc12)NC(=O)[C@H](Cc1c[nH]c2ccccc12)NC(=O)[C@H](CCCCN)NC(=O)[C@H](Cc1c[nH]c2ccccc12)NC(=O)[C@H](CC(N)=O)NC(=O)[C@H](CO)NC(C)=O)C(=O)N[C@@H](Cc1ccccc1)C(=O)N[C@@H](CC(=O)O)C(N)=O`, in assay [2], the inhibition is 33.2%.

For `CC[C@H](C)[C@H](NC(=O)CNC(=O)[C@@H]1CCCN1C(=O)[C@@H](Cc1c[nH]c2ccccc12)NC(=O)[C@H](Cc1c[nH]c2ccccc12)NC(=O)[C@H](CCCCN)NC(=O)[C@H](Cc1c[nH]c2ccccc12)NC(=O)[C@H](CC(N)=O)NC(=O)[C@H](CO)NC(C)=O)C(=O)N[C@@H](Cc1ccccc1)C(=O)N[C@@H](CC(=O)O)C(N)=O`, the inhibition in assay [2] stood at 8.4%.

For the molecule `CC[C@H](C)[C@H](NC(=O)CNC(=O)[C@@H]1CCCN1C(=O)[C@H](Cc1c[nH]c2ccccc12)NC(=O)[C@@H](Cc1c[nH]c2ccccc12)NC(=O)[C@H](CCCCN)NC(=O)[C@H](Cc1c[nH]c2ccccc12)NC(=O)[C@H](CC(N)=O)NC(=O)[C@H](CO)NC(C)=O)C(=O)N[C@@H](Cc1ccccc1)C(=O)N[C@@H](CC(=O)O)C(N)=O`, the inhibition in assay [2] amounted to 6.4%.

For the molecule `CC[C@H](C)[C@H](NC(=O)CNC(=O)[C@@H]1CCCN1C(=O)[C@H](Cc1c[nH]c2ccccc12)NC(=O)[C@H](Cc1c[nH]c2ccccc12)NC(=O)[C@@H](CCCCN)NC(=O)[C@H](Cc1c[nH]c2ccccc12)NC(=O)[C@H](CC(N)=O)NC(=O)[C@H](CO)NC(C)=O)C(=O)N[C@@H](Cc1ccccc1)C(=O)N[C@@H](CC(=O)O)C(N)=O`, the inhibition in assay [2] came out at 9.9%.

On to `CC[C@H](C)[C@H](NC(=O)CNC(=O)[C@@H]1CCCN1C(=O)[C@H](Cc1c[nH]c2ccccc12)NC(=O)[C@H](Cc1c[nH]c2ccccc12)NC(=O)[C@H](CCCCN)NC(=O)[C@@H](Cc1c[nH]c2ccccc12)NC(=O)[C@H](CC(N)=O)NC(=O)[C@H](CO)NC(C)=O)C(=O)N[C@@H](Cc1ccccc1)C(=O)N[C@@H](CC(=O)O)C(N)=O`, for which the inhibition in assay [2] is 41.1%.

With `CC[C@H](C)[C@H](NC(=O)CNC(=O)[C@H]1CCCN1C(=O)[C@H](Cc1c[nH]c2ccccc12)NC(=O)[C@H](Cc1c[nH]c2ccccc12)NC(=O)[C@H](CCCCN)NC(=O)[C@H](Cc1c[nH]c2ccccc12)NC(=O)[C@H](CC(N)=O)NC(=O)[C@H](CO)NC(C)=O)C(=O)N[C@@H](Cc1ccccc1)C(=O)N[C@@H](CC(=O)O)C(N)=O`, the inhibition in assay [2] worked out at 25.7%.

For the molecule `CC[C@H](C)[C@H](NC(=O)[C@@H](C)NC(=O)[C@@H]1CCCN1C(=O)[C@H](Cc1c[nH]c2ccccc12)NC(=O)[C@H](Cc1c[nH]c2ccccc12)NC(=O)[C@H](CCCCN)NC(=O)[C@H](Cc1c[nH]c2ccccc12)NC(=O)[C@H](CC(N)=O)NC(=O)[C@H](CO)NC(C)=O)C(=O)N[C@@H](Cc1ccccc1)C(=O)N[C@@H](CC(=O)O)C(N)=O`, the inhibition in assay [2] came to 16.3%.

Ac-ANWKWWPGIFD-NH2 came in with an IC50 in assay [1] of 6.3 µM. The inhibition in assay [2] came out at 78.2%.

Consider Ac-KWWPGIFD-NH2, for which the inhibition in assay [2] was found to be 5.4%.

Turning to Ac-NWKWWPGIFD-NH2, the IC50 in assay [1] turned out to be 5 µM. Also, in assay [2], the inhibition stood at 78.2%.

Ac-SAWKWWPGIFD-NH2 yielded an IC50 in assay [1] of 4.3 µM. Moreover, the inhibition in assay [2] was 82.2%.

Consider Ac-SNAKWWPGIFD-NH2, for which, in assay [2], the inhibition was -4%.

In assay [1], Ac-SNWAWWPGIFD-NH2 came in with a half-inhibitory concentration (IC50) of 8.5 µM. The inhibition in assay [2] is 78.2%.

As for Ac-SNWKAWPGIFD-NH2, in assay [2], the inhibition is -5.4%.

In assay [1], Ac-SNWKWWAGIFD-NH2 came in with an IC50 of 10 µM. Moreover, in assay [2], the inhibition was determined as 58.9%.

In the case of Ac-SNWKWWP-NH2, in assay [2], the inhibition worked out at 11.4%.

In the case of Ac-SNWKWWPG-NH2, in assay [2], the inhibition came to 5.9%.

In the case of Ac-SNWKWWPGAFD-NH2, the inhibition in assay [2] worked out at 9.9%.

Consider Ac-SNWKWWPGI-NH2, for which the inhibition in assay [2] was found to be 7.4%.

With Ac-SNWKWWPGIAD-NH2, in assay [2], the inhibition was determined as 11.4%.

In the case of Ac-SNWKWWPGIF-NH2, in assay [1], it took 14.6 µM to reach half-maximal inhibition (IC50). The inhibition in assay [2] was 57.4%.

As to Ac-SNWKWWPGIFA-NH2, half-maximal inhibition in assay [1] (IC50) was put at 15.6 µM. For the same molecule, in assay [2], the inhibition came out at 67.8%.

Consider Ac-WKWWPGIF-NH2, for which, in assay [1], the IC50 came to 3.6 µM. The inhibition in assay [2] is 85.6%.

Regarding Ac-WKWWPGIFD-NH2, 2.9 µM corresponded to half-maximal inhibition in assay [1] (IC50). In addition, the inhibition in assay [2] was 81.2%.

Turning to Ac-WWPGIFD-NH2, the inhibition in assay [2] came out at 5%.
